Test results from publication PMC5460289, “Identification of New Shikonin Derivatives as Antitumor Agents Targeting STAT3 SH2 Domain” (Scientific Reports, 2017).

Experiments:
[1] = tested on: MCF-7; test: MTT anti-proliferation assay; format: cell-based, human
Protocol: (§1) Initial experiments were performed for evaluation of growth inhibition by the new compounds against six human breast cancer cell lines, including MCF-7 (ER+/PR+, HER-2-), BT474 (ER+/PR+, HER-2+), SKBR-3 (ER-/PR-/HER-2+), MDA-MB-436 (ER-/PR-/HER-2-), MDA-MB-231 (ER-/PR-/HER-2-), MDA-MB-468 (ER-/PR-/HER-2-) and non-tumorigenic MCF-10A cells. After 24 h treatment by the obtained compounds, the inhibition was assessed and the IC50 was summarized. […] Subsequently, the inhibition of STAT3 activation by PMM-172 and Stattic was evaluated using a dual-luciferase assay.
(§2) The anti-proliferative activities of the prepared compounds against MCF-7 (ER+/PR+, HER-2-), BT474 (ER+/PR+, HER-2+), SKBR-3 (ER-/PR-/HER-2+), MDA-MB-436 (ER-/PR-/HER-2-), MDA-MB-231 (ER-/PR-/HER-2-), MDA-MB-468 (ER-/PR-/HER-2-) and non-tumorigenic MCF-10A cell lines were evaluated using a standard (MTT)-based colorimetric assay with some modification. Cell lines were grown to log phase in DMEM supplemented with 10% fetal bovine serum. Cell suspensions were prepared and 100 μL/well dispensed into 96-well plates giving 10^4 cells/well. The subsequent incubation was permitted at 37 °C, 5% CO2 atmosphere for 24 h to allow the cells to reattach. Subsequently, cells were treated with the target compounds at increasing concentrations in the presence of 10% FBS for 24 h. Then, cell viability was assessed by the conventional 3-(4, 5-dimethylthiazol-2-yl)-2, 5-diphenyltetrazolium bromide (MTT) reduction assay and carried out strictly according to the manufacturer instructions. The absorbance (OD570) was read on an ELISA reader (Tecan, Austria). In all experiments, three replicate wells were used for each drug concentration. Each assay was carried out for at least three times.

[2] = tested on: BT-474; test: MTT anti-proliferation assay; format: cell-based, human
Protocol: as §1, §2

[3] = tested on: SKBR-3; test: MTT anti-proliferation assay; format: cell-based, human
Protocol: as §1, §2

[4] = tested on: MDA-MB-468; test: MTT anti-proliferation assay; format: cell-based, human
Protocol: as §1, §2

[5] = tested on: MDA-MB-436; test: MTT anti-proliferation assay; format: cell-based, human
Protocol: as §1, §2

[6] = tested on: MDA-MB-231; test: MTT anti-proliferation assay; format: cell-based, human
Protocol: as §1, §2

[7] = MTT anti-proliferation assay, non-tumorigenic cells; format: cell-based; settings: human, non-tumorigenic MCF-10A cells, 24 h treatment
Protocol: as §1, §2

[8] = tested on: pSTAT3 (Tyr705) in MDA-MB-231 cells; test: Western blot of constitutive STAT3 activation; format: cell-based, human
Excerpt: It has been well recognized that the aberrant activation of STAT3 contributes to malignant transformation and tumorgenesis, and its activity is ultimately dependent upon phosphorylation of residue Y705. […] In this study, the ability of PMM-172 and Stattic inhibiting the constitutive STAT3 activation in MDA-MB-231 cells was investigated. […] We further measured STAT3 phosphorylation at Tyr705 in a time-course experiment.
Figure 6 (A) PMM-172 suppressed constitutive pSTAT3 (Tyr705) in a dose-dependent manner. (B) PMM-172 suppressed constitutive pSTAT3 (Tyr705) in a time-dependent manner. (C) MDA-MB-231 cells were treated with IL-6 (20 ng/mL) or vehicle for 30 min, with or without pretreatment with PMM-172 (2 μM) for 24 h. PMM-172 inhibited IL-6 induced phosphorylation of STAT3. (D) Stattic suppressed constitutive pSTAT3 (Tyr705) in a dose-dependent manner. (E) Stattic suppressed constitutive pSTAT3 (Tyr705) in a time-dependent manner. (F) Tyrosine phosphorylation of two STAT family proteins STAT1 and STAT5 were detected with specific antibodies. […] Data were shown as mean ± SD of three independent experiments. *P < 0.05, **P < 0.01. Cropped blots/gels were used in the figure and the gels had been run under the same experimental conditions; the full-length blots/gels are presented in Supplementary Figure S2.
Cells were rinsed twice with cold PBS and then lysed with RIPA buffer containing a protease inhibitor mixture at 1:100 dilution on ice for 30 min. Insoluble components of cell lysates were removed by centrifugation (4 °C, 12000 rmp, 10 min), and protein concentrations were measured using a Pierce BCA protein assay kit. Proteins were separated by sodium dodecyl sulfate-polyacrylamide gel electrophoresis (SDS-PAGE) and transferred from the gel onto polyvinylidene difluoride (PVDF) membranes. The membranes were blocked with 5% skim milk in TBST buffer for 1 h at room temperature, and then incubated with corresponding primary antibodies diluted in 5% milk-TBST solution at 4 °C with gentle shaking overnight. After washing five times (5 min each), corresponding HRP-conjugated secondary antibodies were incubated for 1 h at room temperature. Immunoreactive bands were visualized using an ECL detection kit (Invitrogen, USA) following the manufacturer’s instruction.

[9] = tested on: STAT3 nuclear localization in MDA-MB-231 cells; test: STAT3 nuclear localization (cytoplasmic and nuclear extracts, Western blot); format: cell-based, human; settings: MDA-MB-231, 24 h
Protocol: It is known that the dimerization of STAT3 is induced by the phosphorylation at residue Tyr 705, which then leads to its nuclear translocation. Herein, we investigated the effect of PMM-172 and Stattic on STAT3 nuclear translocation. The cytoplasmic and nuclear proteins of treated cells were extracted and the expressions of STAT3 in both fractions were examined.
Figure 7 MDA-MB-231 cells were treated with indicated concentrations of PMM-172 or Stattic for 24 h, the expression levels of STAT3 in cytoplasmic and nuclear extracts were examined and relative expression levels were analyzed by Image J software. β-actin and Lamin B1 served as markers of cytoplasmic and nuclear extractions, respectively. […] (C) MCF-10A cells were treated with the indicated concentrations of PMM-172 for 24 h. PMM-172 had no effect on the level of the pSTAT3 level in MCF-10A cells. […] Data were shown as mean ± SD from three independent experiments, **P < 0.01. Cropped blots/gels were used in the figure and the gels had been run under the same experimental conditions; the full-length blots/gels are presented in Supplementary Figure S3.
To examine the relative proportion of STAT3 in the cytoplasm and nucleus, cytoplasmic and nuclear extracts were prepared. In brief, control and treated cells were collected and suspended in a buffer containing 10 mM HEPES (pH 7.9), 10 mM KCl, 0.1 mM EDTA (pH 8.0), 0.1 mM EGTA (pH 7.0), 1 mM DTT, 0.5 mM PMSF, 2 μg/mL leupeptin, 2 μg/mL aprotonin, 0.5 mg/mL benzamidine. After 15 min, NP-40 (0.25%) was added, and cell lysate was vortexed for 10 s and centrifuged at 10000 rmp at 4 °C for 1 min. […] The protein content in the nuclear and cytoplasmic fractions was determined using a Pierce BCA protein assay kit.
Cells were rinsed twice with cold PBS and then lysed with RIPA buffer containing a protease inhibitor mixture at 1:100 dilution on ice for 30 min. Insoluble components of cell lysates were removed by centrifugation (4 °C, 12000 rmp, 10 min), and protein concentrations were measured using a Pierce BCA protein assay kit. […]

[10] = tested on: STAT3-TATA-Luc reporter in MDA-MB-231 cells; test: STAT3 dual-luciferase reporter assay; format: cell-based, human; settings: MDA-MB-231, 24 h treatment
Protocol: Figure 3 MDA-MB-231 cells were transfected with STAT3-TATA-Luc reporter and Renilla luciferase reporter plasmids. After 24 h, cells were treated with indicated concentrations of PMM-172 or Stattic for 24 h and then luciferase intensity was measured. Results are fold change ± SD of three independent experiments, *P < 0.05, **P < 0.01.
Cells were seeded in 24 well plates and transiently transfected together with STAT3 reporter plasmid 4 × M67 pTATA TK-Luc (0.2 μg/per well, Addgene, USA) and Renilla luciferase control reporter plasmid pRL-CMV (0.1 μg/per well, promega, USA), using lipofectamine 2000 (Invitrogen, USA). Then the cells were incubated with complete medium for 24 h with PMM-172 or Stattic. Following the treatment, the cells were harvested in 100 μL of passive lysis buffer (Promega, USA) in each well. A 25 μL aliquot of cell lysate was subjected to a luciferase assay by using the dual-luciferase assay kit (Promega, USA). STAT3 luciferase activity was measured by EnVision Mutilabel Reader (Perkin Elmer, USA). Relative luciferase activity was calculated after the activity of STAT3-dependent firefly luciferase had been normalized to that of Renilla luciferase. All values are expressed as - fold induction relative to basal activity.

[11] = Homo sapiens, MCF7, 24 h treatment
[12] = Homo sapiens, BT-474, 24 h treatment
[13] = Homo sapiens, SK-BR-3, 24 h treatment
[14] = Homo sapiens, MDA-MB-468, 24 h treatment
[15] = Homo sapiens, MDA-MB-436, 24 h treatment
[16] = Homo sapiens, MDA-MB-231, 24 h treatment

Row | IC50 [1, 11] [µM] | IC50 [2, 12] [µM] | IC50 [3, 13] [µM] | IC50 [4, 14] [µM] | IC50 [5, 15] [µM] | IC50 [6, 16] [µM] | IC50 ([1]; 24 h treatment) [µM] | IC50 ([2]; 24 h treatment) [µM] | IC50 ([3]; 24 h treatment) [µM] | IC50 ([4]; 24 h treatment) [µM] | IC50 ([5]; 24 h treatment) [µM] | Compound | CC50 at 24 h [7] [µM] | IC50 ([6]; 24 h treatment) [µM] | IC50 ([6]; Homo sapiens, MDA-MB-231, 24 h, 24 h treatment) [µM] | STAT3 expression [8] | STAT3 phosphorylation at Tyr705, time-course [8] | level of Y705-phosphorylated STAT3 (constitutive), dose series [8] | level of STAT3 in the nuclear fraction [9] | STAT3 luciferase activity [10]
1 | 9.73 ± 1.03 | 12.7 ± 1.06 | 8.27 ± 0.69 | 8.44 ± 0.78 | 6.88 ± 0.73 | 4.31 ± 0.65 |  |  |  |  |  | COc1ccccc1-c1nnc(SCC(=O)O[C@H](CC=C(C)C)C2=CC(=O)c3c(O)ccc(O)c3C2=O)o1 [PMM-170, (R)-1-(5,8-dihydroxy-1,4-dioxo-1,4-dihydronaphthalen-2-yl)-4-methylpent-3-en-1-yl 2-((5-(2-methoxyphenyl)-1,3,4-oxadiazol-2-yl)thio)acetate] | 94.6 ± 0.83 |  |  |  |  |  |  | 
2 | 5.58 ± 0.83 | 6.03 ± 0.71 | 3.59 ± 0.49 | 3.76 ± 0.88 | 4.06 ± 0.53 | 2.59 ± 0.19 |  |  |  |  |  | CC(C)=CC[C@@H](OC(=O)CSc1nnc(-c2ccc(C)cc2)o1)C1=CC(=O)c2c(O)ccc(O)c2C1=O [PMM-173, (R)-1-(5,8-dihydroxy-1,4-dioxo-1,4-dihydronaphthalen-2-yl)-4-methylpent-3-en-1-yl 2-((5-(p-tolyl)-1,3,4-oxadiazol-2-yl)thio)acetate] | 88.9 ± 0.34 |  |  |  |  |  |  | 
3 |  |  |  |  |  |  | 5.85 ± 0.72 | 5.11 ± 0.57 | 3.39 ± 0.56 | 3.54 ± 0.42 | 3.76 ± 0.5 | O=[N+]([O-])c1ccc2c(c1)S(=O)(=O)C=C2 [Stattic, reference compound] |  | 3.18 ± 0.33 |  | had no effect on STAT3 expression | reduced with the longer treatment | could reduce the level of Y705-phosphorylated STAT3 in MDA-MB-231 cells in a dose-dependent manner | suppressed STAT3 nuclear localization | only a slight advantage over PMM-172

Row | Compound | IC50 [1, 11] [µM] | IC50 [2, 12] [µM] | IC50 [3, 13] [µM] | IC50 [4, 14] [µM] | IC50 [5, 15] [µM] | IC50 [6, 16] [µM] | IC50 ([1]; 24 h treatment) [µM] | IC50 ([2]; 24 h treatment) [µM] | IC50 ([3]; 24 h treatment) [µM] | IC50 ([4]; 24 h treatment) [µM] | IC50 ([5]; 24 h treatment) [µM] | CC50 at 24 h [7] [µM] | IC50 ([6]; 24 h treatment) [µM] | IC50 ([6]; Homo sapiens, MDA-MB-231, 24 h, 24 h treatment) [µM] | STAT3 expression [8] | STAT3 phosphorylation at Tyr705, time-course [8] | level of Y705-phosphorylated STAT3 (constitutive), dose series [8] | level of STAT3 in the nuclear fraction [9] | STAT3 luciferase activity [10]
4 | CC(C)=CC[C@@H](O)C1=CC(=O)c2c(O)ccc(O)c2C1=O [Shikonin, shikonin] | 4.57 ± 0.69 | 5.74 ± 0.66 | 3.75 ± 0.52 | 3.61 ± 0.34 | 3.28 ± 0.41 |  |  |  |  |  |  | 23.5 ± 1.01 | 2.88 ± 0.25 | 3.28 ± 0.41 |  |  |  |  | 
